Laboratory results: ChEMBL document CHEMBL1144005, “Orally active 1,2,4-trioxepanes: synthesis and antimalarial activity of a series of 7-arylvinyl-1,2,4-trioxepanes against multidrug-resistant Plasmodium yoelii in Swiss mice” (2008)

Legend:
Assay type in all cases: functional
Set-up in all cases: scale not given: the % may be the effect or the level left
Plasmodium yoelii [1] = assay: Antimalarial activity against multidrug-resistant Plasmodium yoelii in Swiss mice (Mus musculus) as reduced parasitaemia after 4 days at 96 mg/kg peroral dose; conditions: route oral
Plasmodium yoelii [2] = assay: Antimalarial activity as reduced parasitemia at day 4 against multidrug-resistant Plasmodium yoelii in Swiss mice (Mus musculus) at 96 mg/kg Intramuscular dose
Plasmodium yoelii [3] = assay: Antimalarial activity against multidrug-resistant Plasmodium yoelii in Swiss mice (Mus musculus) as reduced parasitaemia after peroral 48 mg/kg dose for 4 days; conditions: route oral

| SMILES | Activity (Plasmodium yoelii [1]) | Activity (Plasmodium yoelii [2]) | Activity (Plasmodium yoelii [3]) |
| --- | --- | --- | --- |
| C=C(c1cccc2ccccc12)C1CCOC2(CCCCC2)OO1 (stereo not given) | 17.16% | 22.25% |  |
| C=C(c1ccc(Cl)cc1)C1CCOC2(OO1)C1CC3CC(C1)CC2C3 (stereo not given) | 58.38% | 12.18% |  |
| C=C(c1ccc(-c2ccccc2)cc1)C1CCOC2(CCC(=O)CC2)OO1 (stereo not given) | 98.49% | 100% |  |
| C=C(c1ccccc1)C1CCOC2(CCC(O)CC2)OO1 (stereo not given) | 53.59% | 21.39% |  |
| C=C(c1ccc(-c2ccccc2)cc1)C1CCOC(C)(C)OO1 (stereo not given) | 98.22% | 42.13% |  |
| C=C(c1ccc(-c2ccccc2)cc1)C1CCOC2(CCCCC2)OO1 (stereo not given) | 91.36% | 24.69% |  |
| C=C(c1ccc(-c2ccccc2)cc1)C1CCOC2(CCC(O)CC2)OO1 (stereo not given) | 84.13% | 75.47% |  |
| C=C(c1ccccc1)C1CCOC(C)(C)OO1 (stereo not given) | 92.38% | 87.31% |  |
| C=C(c1ccc(Cl)cc1)C1CCOC2(CCCCC2)OO1 (stereo not given) | 24.69% | 46.91% |  |
| C=C(c1ccc(-c2ccccc2)cc1)C1CCOC2(CCCC2)OO1 (stereo not given) | 64.38% | 42.36% |  |
| C=C(c1ccccc1)C1CCOC2(CCCC2)OO1 (stereo not given) | 18.21% | 58.71% |  |
| C=C(c1ccccc1)C1CCOC2(CCC(=O)CC2)OO1 (stereo not given) | 72.02% | 36.6% |  |
| C=C(c1cccc2ccccc12)C1CCOC2(OO1)C1CC3CC(C1)CC2C3 (stereo not given) | 38.27% | 11.11% |  |
| C=C(c1ccccc1)C1CCOC2(CCCCC2)OO1 (stereo not given) | 35.8% | 9.38% |  |
| C=C(c1ccc(Cl)cc1)C1CCOC(C)(C)OO1 (stereo not given) | 48.77% | 57.64% |  |
| C=C(c1ccc(Cl)cc1)C1CCOC2(CCC(O)CC2)OO1 (stereo not given) | 54.59% | 11.47% |  |
| C=C(c1ccc(Cl)cc1)C1CCOC2(CCCC2)OO1 (stereo not given) | 27.16% | 6.17% |  |
| C=C(c1cccc2ccccc12)C1CCOC(C)(C)OO1 (stereo not given) | 70.37% | 32.1% |  |
| C=C(c1ccc(Cl)cc1)C1CCOC2(CCC(=O)CC2)OO1 (stereo not given) | 23.36% | 100% |  |
| C=C(c1ccc(-c2ccccc2)cc1)C1CCOC2(OO1)C1CC3CC(C1)CC2C3 (stereo not given) | 44.78% | 31.98% |  |
| C=C(c1ccccc1)C1CCOC2(OO1)C1CC3CC(C1)CC2C3 (stereo not given) | 57.36% | 27.41% |  |
| C=C(c1cccc2ccccc12)C1CCOC2(CCCC2)OO1 (stereo not given) | 49.75% | 19.8% |  |
| CCO[C@H]1O[C@@H]2O[C@@]3(C)CC[C@H]4[C@H](C)CC[C@@H]([C@H]1C)[C@@]24OO3 [ARTEMOTIL] |  |  | 100% |
